# Assay results reported in BindingDB's records for doi:10.1016/j.bioorg.2017.02.010 (Charles University, 2017).
# Where “and” joins values, the source holds several entries; their conditions need not be identical. Equal entries are not always repeated.
# Tests used:
# [1] = molecular target: Carboxylic ester hydrolase (Equus caballus, UniProt Q9N1N9); assay: Cholinesterase Inhibition Assay
# Acetylcholinesterase = Acetylcholinesterase (Electrophorus electricus, UniProt O42275); assay: Cholinesterase Inhibition Assay
# Sequence of Acetylcholinesterase (O42275 whole entry): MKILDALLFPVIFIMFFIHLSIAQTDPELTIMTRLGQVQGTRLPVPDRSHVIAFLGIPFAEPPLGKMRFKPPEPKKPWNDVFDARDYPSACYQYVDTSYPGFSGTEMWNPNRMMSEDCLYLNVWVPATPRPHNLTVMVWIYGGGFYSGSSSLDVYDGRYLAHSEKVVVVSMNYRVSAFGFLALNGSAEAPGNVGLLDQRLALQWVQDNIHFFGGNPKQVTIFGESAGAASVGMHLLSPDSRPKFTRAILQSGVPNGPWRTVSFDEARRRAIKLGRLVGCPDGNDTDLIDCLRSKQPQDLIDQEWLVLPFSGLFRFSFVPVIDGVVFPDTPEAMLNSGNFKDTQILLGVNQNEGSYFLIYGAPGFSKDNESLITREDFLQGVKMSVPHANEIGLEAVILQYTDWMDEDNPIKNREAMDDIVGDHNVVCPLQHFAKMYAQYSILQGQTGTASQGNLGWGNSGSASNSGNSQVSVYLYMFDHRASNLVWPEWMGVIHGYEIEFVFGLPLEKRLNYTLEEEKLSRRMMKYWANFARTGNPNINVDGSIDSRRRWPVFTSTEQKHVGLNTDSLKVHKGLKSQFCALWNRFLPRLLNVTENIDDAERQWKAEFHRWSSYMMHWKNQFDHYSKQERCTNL
# Sequence of Carboxylic ester hydrolase (Q9N1N9 whole entry): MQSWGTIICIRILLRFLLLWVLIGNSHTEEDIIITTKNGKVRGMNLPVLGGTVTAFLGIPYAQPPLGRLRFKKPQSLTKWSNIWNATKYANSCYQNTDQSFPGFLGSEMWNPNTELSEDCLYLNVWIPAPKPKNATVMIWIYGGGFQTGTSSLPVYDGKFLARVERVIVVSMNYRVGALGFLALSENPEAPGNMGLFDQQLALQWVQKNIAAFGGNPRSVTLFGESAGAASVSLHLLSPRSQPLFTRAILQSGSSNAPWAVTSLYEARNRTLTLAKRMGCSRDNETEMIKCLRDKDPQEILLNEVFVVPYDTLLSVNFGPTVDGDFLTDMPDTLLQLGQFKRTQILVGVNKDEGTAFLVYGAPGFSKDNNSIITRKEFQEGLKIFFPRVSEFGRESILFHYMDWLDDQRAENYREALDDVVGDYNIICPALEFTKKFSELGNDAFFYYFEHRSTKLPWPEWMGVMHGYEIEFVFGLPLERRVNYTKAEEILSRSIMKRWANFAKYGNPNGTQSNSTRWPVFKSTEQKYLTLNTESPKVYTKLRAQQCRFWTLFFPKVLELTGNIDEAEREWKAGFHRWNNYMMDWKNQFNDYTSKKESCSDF
Compound,IC50 [1],IC50 (Acetylcholinesterase)
CC(=O)NC(Cc1ccccc1F)C(=O)Nc1ccc(C)cc1 (centres undefined) [2-Acetamido-3-(2-fluorophenyl)-N-(4-methylphenyl)propanamide (1b)],113 µM,69 µM
CC(=O)NC(Cc1ccccc1F)C(=O)Nc1ccc([N+](=O)[O-])cc1 (centres undefined) [2-Acetamido-3-(2-fluorophenyl)-N-(4-nitrophenyl)propanamide (1c)],154 µM,64.4 µM
CC(=O)NC(Cc1ccccc1F)C(=O)Nc1ccc(C(F)(F)F)cc1 (centres undefined) [2-Acetamido-3-(2-fluorophenyl)-N-[4-(trifluoromethyl)phenyl]propanamide (1d)],218 µM,73.4 µM
CC(=O)NC(Cc1ccccc1F)C(=O)Nc1ccccc1 (centres undefined) [2-Acetamido-3-(2-fluorophenyl)-N-phenylpropanamide (1e)],121 µM,86.3 µM
CC(=O)NC(Cc1cccc(F)c1)C(=O)Nc1ccc(C)cc1 (centres undefined) [2-Acetamido-3-(3-fluorophenyl)-N-(4-methylphenyl)propanamide (2b)],143 µM,68.7 µM
CC(=O)NC(Cc1cccc(F)c1)C(=O)Nc1ccc([N+](=O)[O-])cc1 (centres undefined) [2-Acetamido-3-(3-fluorophenyl)-N-(4-nitrophenyl)propanamide (2c)],120 µM,70.6 µM
CC(=O)NC(Cc1cccc(F)c1)C(=O)Nc1ccc(C(F)(F)F)cc1 (centres undefined) [2-Acetamido-3-(3-fluorophenyl)-N-[4-(trifluoromethyl)phenyl]propanamide (2d)],164 µM,79.4 µM
CC(=O)NC(Cc1cccc(F)c1)C(=O)Nc1ccccc1 (centres undefined) [2-Acetamido-3-(3-fluorophenyl)-N-phenylpropanamide (2e)],157 µM,86.5 µM
CC(=O)NC(Cc1ccc(F)cc1)C(=O)Nc1ccc(C)cc1 (centres undefined) [2-Acetamido-3-(4-fluorophenyl)-N-(4-methylphenyl)propanamide (3b)],154 µM,69 µM
CC(=O)NC(Cc1ccc(F)cc1)C(=O)Nc1ccc([N+](=O)[O-])cc1 (centres undefined) [2-Acetamido-3-(4-fluorophenyl)-N-(4-nitrophenyl)propanamide (3c)],162 µM,66 µM
CC(=O)NC(Cc1ccc(F)cc1)C(=O)Nc1ccc(C(F)(F)F)cc1 (centres undefined) [2-Acetamido-3-(4-fluorophenyl)-N-[4-(trifluoromethyl)phenyl]propanamide (3d)],289 µM,84.1 µM
CC(=O)NC(Cc1ccc(F)cc1)C(=O)Nc1ccccc1 (centres undefined) [2-Acetamido-3-(4-fluorophenyl)-N-phenylpropanamide (3e)],89.8 µM,99.8 µM
CC(=O)NC(Cc1ccccc1F)C(=O)Nc1ccc(Cl)cc1 (centres undefined) [2-Acetamido-N-(4-chlorophenyl)-3-(2-fluorophenyl)propanamide (1a)],227 µM,76.5 µM
CC(=O)NC(Cc1cccc(F)c1)C(=O)Nc1ccc(Cl)cc1 (centres undefined) [2-Acetamido-N-(4-chlorophenyl)-3-(3-fluorophenyl)propanamide (2a)],170 µM,70.7 µM
CC(=O)NC(Cc1ccc(F)cc1)C(=O)Nc1ccc(Cl)cc1 (centres undefined) [2-Acetamido-N-(4-chlorophenyl)-3-(4-fluorophenyl)propanamide (3a)],235 µM,97 µM
CC(=O)NC(Cc1ccccc1F)C(=O)O (centres undefined) [2-acetamido-3-(2-fluorophenyl)propanoic acid (1)],217 µM,64.2 µM

Compound,IC50 [1],IC50 (Acetylcholinesterase)
CC(=O)NC(Cc1cccc(F)c1)C(=O)O (centres undefined) [2-acetamido-3-(3-fluorophenyl)propanoic acid (2)],210 µM,63.6 µM
CC(=O)NC(Cc1ccc(F)cc1)C(=O)O (centres undefined) [2-acetamido-3-(4-fluorophenyl)propanoic acid (3)],227 µM,63.7 µM
CC(=O)NC(Cc1ccccc1F)C(=O)Oc1ccc(C(F)(F)F)cc1 (centres undefined) [4-(Trifluoromethyl)phenyl 2-acetamido-3-(2-fluorophenyl)propanoate (1i)],37.4 µM and 59.8 µM,68 µM and 62.9 µM
CC(=O)NC(Cc1cccc(F)c1)C(=O)Oc1ccc(C(F)(F)F)cc1 (centres undefined) [4-(Trifluoromethyl)phenyl 2-acetamido-3-(3-fluorophenyl)propanoate (2i)],34 µM,62.2 µM
CC(=O)NC(Cc1ccccc1F)C(=O)Oc1ccc(Cl)cc1 (centres undefined) [4-Chlorophenyl 2-acetamido-3-(2-fluorophenyl)propanoate (1f)],82.2 µM,104 µM
CC(=O)NC(Cc1cccc(F)c1)C(=O)Oc1ccc(Cl)cc1 (centres undefined) [4-Chlorophenyl 2-acetamido-3-(3-fluorophenyl)propanoate (2f)],52.7 µM,115 µM
CC(=O)NC(Cc1ccc(F)cc1)C(=O)Oc1ccc(Cl)cc1 (centres undefined) [4-Chlorophenyl 2-acetamido-3-(4-fluorophenyl)propanoate (3f)],59.1 µM,131 µM
CC(=O)NC(Cc1ccccc1F)C(=O)Oc1ccc(C)cc1 (centres undefined) [4-Methylphenyl 2-acetamido-3-(2-fluorophenyl)propanoate (1g)],85.4 µM,57.9 µM
CC(=O)NC(Cc1cccc(F)c1)C(=O)Oc1ccc(C)cc1 (centres undefined) [4-Methylphenyl 2-acetamido-3-(3-fluorophenyl)propanoate (2g)],90.9 µM,68.5 µM
CC(=O)NC(Cc1ccc(F)cc1)C(=O)Oc1ccc(C)cc1 (centres undefined) [4-Methylphenyl 2-acetamido-3-(4-fluorophenyl)propanoate (3g)],83.3 µM,73.3 µM
CC(=O)NC(Cc1ccccc1F)C(=O)Oc1ccc([N+](=O)[O-])cc1 (centres undefined) [4-Nitrophenyl 2-acetamido-3-(2-fluorophenyl)propanoate (1h)],77.5 µM,76.7 µM
CC(=O)NC(Cc1cccc(F)c1)C(=O)Oc1ccc([N+](=O)[O-])cc1 (centres undefined) [4-Nitrophenyl 2-acetamido-3-(3-fluorophenyl)propanoate (2h)],142 µM,74.3 µM
CC(=O)NC(Cc1ccc(F)cc1)C(=O)Oc1ccc([N+](=O)[O-])cc1 (centres undefined) [4-Nitrophenyl 2-acetamido-3-(4-fluorophenyl)propanoate (3h)],126 µM,60 µM
CC(=O)NC(Cc1ccccc1F)C(=O)Oc1ccccc1 (centres undefined) [Phenyl 2-acetamido-3-(2-fluorophenyl)propanoate (1j)],30 µM,79.2 µM
CC(=O)NC(Cc1cccc(F)c1)C(=O)Oc1ccccc1 (centres undefined) [Phenyl 2-acetamido-3-(3-fluorophenyl)propanoate (2j)],53.7 µM,87.8 µM
CC(=O)NC(Cc1ccc(F)cc1)C(=O)Oc1ccccc1 (centres undefined) [Phenyl 2-acetamido-3-(4-fluorophenyl)propanoate (3j)],8.25 µM,98.3 µM
